Test results as given in article PMC5956890 (Journal of medicinal chemistry, 2017).
Entries after “also recorded” stand apart in the source; their conditions may differ.

Key:
[1] = target: T1, PPARα (Homo sapiens, UniProt Q07869); assay: TR-FRET competitive binding assay PPARα; details: up to 20 µM
T1 sequence (Q07869 200-468 limits assumed): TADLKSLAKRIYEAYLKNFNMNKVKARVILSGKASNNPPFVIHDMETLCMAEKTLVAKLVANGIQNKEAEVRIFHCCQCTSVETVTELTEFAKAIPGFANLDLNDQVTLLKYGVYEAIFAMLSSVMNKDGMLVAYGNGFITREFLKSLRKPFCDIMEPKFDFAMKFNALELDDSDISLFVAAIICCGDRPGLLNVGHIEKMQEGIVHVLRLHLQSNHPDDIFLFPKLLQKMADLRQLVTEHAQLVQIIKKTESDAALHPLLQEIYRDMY

[2] = target: T2, PPARγ (Homo sapiens, UniProt P37231); assay: TR-FRET competitive binding assay PPARγ; details: concentration-response
T2 sequence (P37231 235-505 limits assumed): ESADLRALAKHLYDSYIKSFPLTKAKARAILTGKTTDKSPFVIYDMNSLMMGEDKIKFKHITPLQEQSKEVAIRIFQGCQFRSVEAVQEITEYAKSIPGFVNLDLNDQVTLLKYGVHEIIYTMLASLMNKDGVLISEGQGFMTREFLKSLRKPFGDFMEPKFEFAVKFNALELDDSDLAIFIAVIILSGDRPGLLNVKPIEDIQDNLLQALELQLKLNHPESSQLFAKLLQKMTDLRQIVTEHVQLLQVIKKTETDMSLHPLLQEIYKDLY

[3] = target: T3, PPARδ (Homo sapiens, UniProt Q03181); assay: TR-FRET competitive binding assay PPARδ; details: concentration-response
T3 sequence (Q03181 1-441): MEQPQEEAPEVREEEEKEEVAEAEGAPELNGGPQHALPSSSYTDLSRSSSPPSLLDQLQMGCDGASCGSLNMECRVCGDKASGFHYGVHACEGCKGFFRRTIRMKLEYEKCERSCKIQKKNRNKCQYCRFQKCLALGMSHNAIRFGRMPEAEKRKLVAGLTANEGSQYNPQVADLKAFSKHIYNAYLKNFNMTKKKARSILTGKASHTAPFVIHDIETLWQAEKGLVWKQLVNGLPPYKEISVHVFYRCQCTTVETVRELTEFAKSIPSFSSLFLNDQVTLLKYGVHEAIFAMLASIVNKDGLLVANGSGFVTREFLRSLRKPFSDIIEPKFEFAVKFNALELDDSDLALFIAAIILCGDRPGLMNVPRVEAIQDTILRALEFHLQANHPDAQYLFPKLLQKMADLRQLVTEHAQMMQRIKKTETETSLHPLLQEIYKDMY

[4] = target: T4, PPARγ (Homo sapiens, UniProt P37231); assay: luciferase-reporter PPARγ transactivation assay in CV-1 cells; format: cell-based; details: 30 µM
T4 sequence (P37231 1-505): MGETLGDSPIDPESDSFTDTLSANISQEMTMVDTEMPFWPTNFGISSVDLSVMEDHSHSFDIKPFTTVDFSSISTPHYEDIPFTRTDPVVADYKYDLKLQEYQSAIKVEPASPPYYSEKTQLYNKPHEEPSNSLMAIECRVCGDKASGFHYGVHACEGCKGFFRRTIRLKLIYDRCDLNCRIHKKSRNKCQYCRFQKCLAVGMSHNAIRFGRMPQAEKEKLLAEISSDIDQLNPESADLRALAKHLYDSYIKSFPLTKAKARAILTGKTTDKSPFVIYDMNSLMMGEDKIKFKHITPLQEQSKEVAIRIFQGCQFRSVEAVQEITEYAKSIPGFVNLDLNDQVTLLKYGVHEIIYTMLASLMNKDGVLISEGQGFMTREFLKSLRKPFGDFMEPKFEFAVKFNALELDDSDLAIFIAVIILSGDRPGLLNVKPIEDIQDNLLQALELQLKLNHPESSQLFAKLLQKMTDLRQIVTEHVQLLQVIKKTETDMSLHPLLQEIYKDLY

[5] = target: T5, PPARδ (Homo sapiens, UniProt Q03181); assay: TR-FRET PPARδ coactivator assay; format: biochemical; details: compound alone
T5 sequence (Q03181 211-439 limits assumed): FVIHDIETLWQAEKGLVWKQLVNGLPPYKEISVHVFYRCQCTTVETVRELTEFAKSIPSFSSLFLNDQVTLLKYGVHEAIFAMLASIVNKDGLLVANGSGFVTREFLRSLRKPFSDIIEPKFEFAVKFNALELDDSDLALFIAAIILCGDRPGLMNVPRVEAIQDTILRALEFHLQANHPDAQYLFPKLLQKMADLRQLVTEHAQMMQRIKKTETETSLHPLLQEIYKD

[6] = target: T5, PPARδ; assay: TR-FRET PPARδ corepressor assay; format: biochemical; details: SMRT-ID2 peptide
[7] = test system: ANGPTL4 and PDK4 gene transcription; assay: Q-RT-PCR of ANGPTL4 and PDK4 mRNA in hBM-MSCs; format: cell-based, human; details: 3rd day after induction of adipogenesis
[8] = test system: STZ-induced diabetic C57BL/6J mice; assay: STZ-induced diabetes mouse model; format: in vivo; details: oral 20 mg/kg for 5 days, male C57BL/6J
[9] = test system: hBM-MSCs; assay: adiponectin production during adipogenesis in hBM-MSCs; details: 20 µM

replacement of labeled PPARα ligand binding [1]: ≤ 50% | PPARγ binding activity [2]: significant competitive binding activity | PPARδ binding activity [3]: maximal PPARδ binding activity
Compound: O[C@@H]1[C@H](O)CS[C@H]1n1cnc2c(NCc3cccc(I)c3)nc(Cl)nc21 [Compound 3a, (2R,3R,4S)-2-(2-Chloro-6-((3-iodobenzyl)amino)-9H-purin-9-yl)tetrahydrothiophene-3,4-diol]
PPARγ transactivation compared to troglitazone [4]: did not achieve maximal PPARγ transactivation activity | recruitment of labeled coactivator peptide to PPARδ [5]: no effect on the recruitment of the labeled coactivator peptide | interaction between PPARδ and corepressor peptide [6]: promotion of the interaction between PPARδ and corepressor peptide | ANGPTL4 mRNA level [7]: did not affect ANGPTL4 and PDK4 mRNA levels | PDK4 mRNA level [7]: did not affect ANGPTL4 and PDK4 mRNA levels | serum lactate levels [8]: tended to decrease the serum lactate levels | serum triglyceride levels [8]: downregulated serum triglyceride levels | serum glucose levels ([8]; 20 mg/kg): significantly decreased serum glucose levels; also recorded: dose-dependent | rank as promoter of adipogenesis among tested A3 AR agonists and antagonists [9]: most potent promoter of adipogenesis
